Measurements published in patent US12281205B2, “Modified antibacterial compositions and methods” (priority 2016, dated 2025).
Values after ≈ are worked out from the molar mass of the structure shown. Values joined by “and” are separate entries in the source; they are usually repeats but may differ in a detail not shown here. Equal entries are not always repeated. Where two headings read alike, the source gives them in different places. Where no end group is shown, it is not given here.

Experiments:
[1] = tested on: MDR A. baumannii (FADDI-AB156); assay: Antibiogram of MDR A. baumannii; format: cell-based, Acinetobacter baumannii; details: for Susceptibility: CLSI resistant breakpoints
[2] = tested on: MDR P. aeruginosa (FADDI-PA067); assay: Antibiogram of MDR P. aeruginosa; format: cell-based, Pseudomonas aeruginosa; details: for Susceptibility: CLSI resistant breakpoints
[3] = tested on: CMDR A. baumannii (FADDI-AB156); assay: Mouse peritonitis model; format: in vivo, C57BL/6 mice; details: 24 h infection
[4] = tested on: E. coli; assay: Minimum inhibitory concentration (MIC), broth microdilution; format: cell-based; details: Escherichia coli
Method: The MICs of the PAMAM dendrimers were determined using a broth microdilution method. After the preparation of a dilution series of each compound and the addition of bacterial cells (Note: steps identical to that taken for the measurement of MBC), the optical density readings of each well at 630 nm were measured as a function of time using a microplate reader (Multiskan Ascent, Pathtech Pty. Ltd.). Positive controls containing cells alone were incorporated. Optical density was plotted against polymer concentration and linear regression analysis was used to determine the lowest concentration (MIC) at which the optical density reading becomes zero. A minimum of two independent experiments (biological replicates) of the assay were conducted and two technical replicates were used in each experiment for each bacterium, polymer, and concentration. Data is expressed as mean±standard deviation (SD) of the biological replicates and analysed using student's t-test.

[5] = tested on: sheep red blood cells (RBCs); assay: Hemolysis assay
Method: Fresh sheep red blood cells (RBCs) were diluted 1 in 20 in PBS (pH 7.4), pelleted by centrifugation, and washed three times in PBS (1000 g, 10 min). The RBCs were counted using a cell counter (Coulter Particle Counter Z series, Beckman Coulter) and diluted to a final concentration of 2×10^7 cells/mL. 100 μL aliquots of the RBC solution were seeded into a V-bottomed 96-well plate containing 100 μL of test compound solution of varying concentrations (4-256 μg/mL) and incubated in a humidified atmosphere containing 5% CO2 at 37° C. for 2 h. Following incubation, the 96-well plate was centrifuged (1000 g, 10 min) and aliquots (100 μL) of supernatant were transferred to a flat-bottomed 96-well plate. Hemoglobin release upon lysis of the RBCs was monitored at 405 nm using a microplate reader (PerkinElmer 1420 Multilabel Counter VICTOR^3). Positive and negative controls for hemolysis were taken as RBC lysed with 0.5% Triton X-100 (1:1 v/v) and RBC suspension in PBS, respectively. The percentage of hemolysis was calculated using the following formula:
The percentage hemolysis was plotted against peptide polymer concentration and linear regression analysis was used to determine the hemolytic concentration needed to lyse 50% (HC50) of RBCs. Two independent runs of the assay were conducted and two replicates were used in each run for each compound and concentration.
Fresh sheep red blood cells (RBCs) were diluted 1 in 20 in PBS (pH 7.4), pelleted by centrifugation, and washed three times in PBS (1000 g, 10 min). The RBCs were counted using a cell counter (Coulter Particle Counter Z series, Beckman Coulter) and diluted to a final concentration of 2×10^7 cells/mL. 100 μL aliquots of the RBC solution were seeded into a V-bottomed 96-well plate containing 100 μL of polypeptide solution of varying concentrations (4-256 μg/mL) and incubated in a humidified atmosphere containing 5% CO2 at 37° C. for 2 h. Following incubation, the 96-well plate was centrifuged (1000 g, 10 min) and aliquots (100 μL) of supernatant were transferred to a flat-bottomed 96-well plate. Hemoglobin release upon lysis of the RBCs was monitored at 405 nm using a microplate reader (PerkinElmer 1420 Multilabel Counter VICTOR3). Positive and negative controls for hemolysis were taken as RBC lysed with 0.5% Triton X-100 (1:1 v/v) and RBC suspension in PBS, respectively. The percentage of hemolysis was calculated using the following formula:
The percentage hemolysis was plotted against polypeptide concentration and linear regression analysis was used to determine the hemolytic concentration needed to lyse 50% (HC50) of RBCs. Two independent runs of the assay were conducted and two replicates were used in each run for each polypeptide and concentration.

[6] = tested on: E. coli (ATCC 25922); assay: Minimum bactericidal concentration (MBC); format: cell-based, Escherichia coli; parameters: unit not given here; details: MHB
Excerpt: (§1) The number of colony-forming units (CFU) was counted and expressed as CFU/mL. Positive controls consisting of cells without any treatment were used.
as §1

[7] = tested on: K. pneumoniae (ATCC 13883); assay: Minimum bactericidal concentration (MBC); format: cell-based, Klebsiella pneumoniae; parameters: unit not given here; details: MHB
Method: (§2) A dilution series of each compound was made by diluting test compound stock in media to a desired range of concentrations and a final volume of 100 μL in each well of a 96-well plate. Bacterial cells (which gave an optical density reading of ˜0.7 at 650 nm for E. coli, K. pneumoniae, P. aeruginosa, and S. aureus, ˜0.5 at 650 nm for A. baumannii and ˜1.8 at 650 nm for S. mutans) were diluted to 2.5×10^6 cells/mL in media and 100 μL of the bacteria solution was added to each well. The 96-well plate was then incubated at 37° C. for 90 min. For each well, microbial solution was diluted with saline (0.9% NaCl solution) using an appropriate dilution factor and placed on an agar plate (identical to that used for bacteria culture). For E. coli, K. pneumoniae, A. baumannii, and S. aureus, the agar plates were incubated overnight at room temperature, and then at 37° C. with aeration for 2 h. For P. aeruginosa and S. mutans, the agar plates were incubated at 37° C., with the former being incubated overnight with aeration and the latter in an anaerobic chamber for 48 h. The number of colony-forming units (CFU) was counted and expressed as CFU/mL. Positive controls consisting of cells without any treatment were used. […] Data is expressed as mean±standard deviation (SD) of the biological replicates and analysed using student's t-test. […]

[8] = tested on: P. aeruginosa (ATCC 47085); assay: Minimum bactericidal concentration (MBC); format: cell-based, Pseudomonas aeruginosa; parameters: unit not given here; details: MHB
Method: as §2

[9] = tested on: A. baumannii (ATCC 19606); assay: Minimum bactericidal concentration (MBC); format: cell-based, Acinetobacter baumannii; parameters: unit not given here; details: MHB
Method: as §2

[10] = concentration giving 50% hemolysis, 2 h

## NCC[C@H](O)C(=O)N[C@@H]1C[C@H](N)[C@@H](O[C@H]2O[C@H](CN)[C@@H](O)[C@H](O)[C@H]2O)[C@H](O)[C@H]1O[C@H]1O[C@H](CO)[C@@H](O)[C@H](N)[C@H]1O [Amikacin]
[1]
  Susceptibility: Resistant

## CC1(C)S[C@@H]2[C@H](NC(=O)[C@H](N)c3ccccc3)C(=O)N2[C@H]1C(=O)O [Ampicillin]
[1]; Acinetobacter baumannii
  MIC: ≥ 91.6 µM
[1]
  Susceptibility: Resistant

## C[C@H]1[C@H](NC(=O)/C(=N\OC(C)(C)C(=O)O)c2csc(N)n2)C(=O)N1S(=O)(=O)O [Aztreonam]
[2]
  Susceptibility: Resistant

## Cc1nnc(SCC2=C(C(=O)O)N3C(=O)[C@@H](NC(=O)Cn4cnnn4)[C@H]3SC2)s1 [Cefazolin]
[1]
  Susceptibility: Resistant

## CO/N=C(\C(=O)N[C@@H]1C(=O)N2C(C(=O)[O-])=C(C[N+]3(C)CCCC3)CS[C@H]12)c1csc(N)n1 [Cefepime]
[1]
  Susceptibility: Resistant

## CO[C@@]1(NC(=O)Cc2cccs2)C(=O)N2C(C(=O)O)=C(COC(N)=O)CS[C@@H]21 [Cefoxitin]
[1]
  Susceptibility: Resistant

## CC(C)(O/N=C(\C(=O)N[C@@H]1C(=O)N2C(C(=O)[O-])=C(C[n+]3ccccc3)CS[C@H]12)c1csc(N)n1)C(=O)O [Ceftazidime]
[2]
  Susceptibility: Resistant
[1]
  Susceptibility: Resistant

## CO/N=C(\C(=O)N[C@@H]1C(=O)N2C(C(=O)O)=C(CSc3nc(=O)c(=O)[nH]n3C)CS[C@H]12)c1csc(N)n1 [Ceftriaxone]
[1]
  Susceptibility: Resistant

## C[C@@H](O)[C@H]1C(=O)N2C(C(=O)O)=C(SCCN=CN)C[C@H]12 [Imipenem]
[1]; Acinetobacter baumannii
  MIC: ≥ 214 µM
[3]
  survival: 50%

## C[C@@H](O)[C@H]1C(=O)N2C(C(=O)O)=C(S[C@@H]3CN[C@H](C(=O)N(C)C)C3)[C@H](C)[C@H]12 [Meropenem]
[1]
  Susceptibility: Resistant

## CCn1cc(C(=O)O)c(=O)c2ccc(C)nc21 [Nalidixic Acid]
[1]
  Susceptibility: Resistant

## CCn1cc(C(=O)O)c(=O)c2cc(F)c(N3CCNCC3)cc21 [Norfloxacin]
[1]
  Susceptibility: Resistant

## CCN1CCN(C(=O)N[C@@H](C(=O)N[C@@H]2C(=O)N3[C@@H]2SC(C)(C)[C@@H]3C(=O)O)c2ccccc2)C(=O)C1=O [Piperacillin]
[2]
  Susceptibility: Resistant

## CC1(C)S[C@@H]2[C@H](NC(=O)[C@H](C(=O)O)c3ccsc3)C(=O)N2[C@H]1C(=O)O [Ticarcillin]
[2]
  Susceptibility: Resistant

## NC[C@H]1O[C@H](O[C@H]2[C@H](O)[C@@H](O[C@H]3O[C@H](CO)[C@@H](O)[C@H](N)[C@H]3O)[C@H](N)C[C@@H]2N)[C@H](N)C[C@@H]1O [Tobramycin]
[2]
  Susceptibility: Resistant
[1]; Acinetobacter baumannii
  MIC: ≥ 34.2 µM
[1]
  Susceptibility: Resistant

## COc1cc(Cc2cnc(N)nc2N)cc(OC)c1OC [Trimethoprim]
[1]
  Susceptibility: Resistant

## C[C@H]1c2cccc(O)c2C(=O)C2=C(O)[C@]3(O)C(=O)C(C(N)=O)=C(O)[C@@H](N(C)C)[C@@H]3[C@@H](O)[C@@H]21 [doxycycline]
[4]
  MIC: 0.5 µg/mL (≈ 1.13 µM)

## Amoxicillin/Clavulanic Acid
[1]
  MIC: ≥87.6 µM
  Susceptibility: Resistant

## Colistin Sulfate
[2]
  Susceptibility, concentration in parentheses: > 110.8 µM
  Susceptibility: Resistant
[1]
  MIC: 13.8 µM
  Susceptibility: Resistant

## GIGKFLHSAKKFGKAFVGEIMNS-NH2 [Magainin II]
[5]; [10]
  HC50: 81.1 µM
[5]; extrapolated from FIG. 59
  HC50: 33 μg/mL and 81.1 μM

## Gentamicin
[2]
  Susceptibility: Resistant
[1]
  MIC: ≥33.5 µM
  Susceptibility: Resistant

## Ovispirin: antimicrobial peptide NH2- KNLRRIIRKIIHIIKKYG-COOH (H-KNLRRIIRKIIHIIKKYG-OH; also: SNAPP conjugate)
[6]
  MBC: 8.39 ± 0.44
[7]
  MBC: 11.49 ± 4.86
[8]
  MBC: 95.49 ± 9.73
[9]
  MBC: 2.21 ± 0.88
[5]; [10]
  HC50: 61.8 µM
[5]; extrapolated from FIG. 59
  HC50: 27 μg/mL and 61.8 μM

## Piperacillin/Tazobactam
[1]
  MIC: ≥247.3 µM
  Susceptibility: Resistant

## Ticarcillin/Clavulanic Aid
[1]
  MIC: ≥333.0 µM
  Susceptibility: Resistant

## Trimethoprim/Sulfamethoxazole
[1]
  MIC: ≥1102.2 µM
  Susceptibility: Resistant
